Where two headings read alike, the source gives them in different places.
Columns and labels:
[1] = system: CTG-0198 SCLC PDX tumor; assay: Human SCLC PDX model CTG-0198; type: in vivo, immunocompromised mice; conditions: D 29, MTD 0.25-0.3 mg/kg once daily oral, median tumor volume (n = 5)
Description: (§1) Twelve human SCLC PDX models (obtained from Crown Biosciences, OncoTest, WuxiAppTec) were evaluated for their responses to talazoparib single agent treatment. PDX tumors were propagated subcutaneously in immunocompromised mice at passage 3 to 13. When tumors reached approximately 150 mm^3 average volume, animals (n=5 per group) were administered orally with vehicle (once daily dose), or talazoparib at the maximum tolerated dose (MTD; 0.25-0.3 mg/kg, once daily). Tumor volume and animal body weight were measured twice weekly until the end of study or until tumor size exceeded 2000 mm^3. Untreated tumor samples were collected from mice. Median tumor volume on Day 21 and beyond after first treatment was used to calculate the change from baseline to evaluate response.

[2] = system: LU1267 SCLC PDX tumor; assay: Human SCLC PDX model LU1267; type: in vivo, immunocompromised mice; conditions: D 38, MTD 0.25-0.3 mg/kg once daily oral, median tumor volume (n = 5)
Description: as §1

[3] = system: NCI-H69 SCLC xenograft; assay: Cell line-derived xenograft model NCI-H69; type: in vivo, BALB/c nude mice; conditions: 0.33 mg/kg, Q1D×28 p.o.
Description: (§2) Human NCI-H1048, NCI-H209, and NCI-H69 SCLC tumor cells were injected subcutaneously in the flanks of BALB/c nude mice. When tumors reached approximately 130 mm^3 average volume, animals (n=8 per group) were treated with vehicle (Q1D×28, p.o.), cisplatin (6 mg/kg, Q6D×2 i.p.), or talazoparib (0.33 mg/kg, Q1D×28 p.o.). Tumor growth and animal body weight were monitored twice per week by standard methods.

[4] = system: LU65 SCLC PDX tumor; assay: Human SCLC PDX model LU65; type: in vivo, immunocompromised mice; conditions: D 21, MTD 0.25-0.3 mg/kg once daily oral, median tumor volume (n = 5)
Description: as §1

[5] = system: LXFS 1129 SCLC PDX tumor; assay: Human SCLC PDX model LXFS 1129; type: in vivo, immunocompromised mice; conditions: D 21, MTD 0.25-0.3 mg/kg once daily oral, median tumor volume (n = 5)
Description: as §1

[6] = system: NCI-H209 SCLC xenograft; assay: Cell line-derived xenograft model NCI-H209; type: in vivo, BALB/c nude mice; conditions: 0.33 mg/kg, Q1D×28 p.o.
Description: as §2

[7] = system: CTG-0199 SCLC PDX tumor; assay: Human SCLC PDX model CTG-0199; type: in vivo, immunocompromised mice; conditions: D 21, MTD 0.25-0.3 mg/kg once daily oral, median tumor volume (n = 5)
Description: as §1

[8] = system: LU2514 SCLC PDX tumor; assay: Human SCLC PDX model LU2514; type: in vivo, immunocompromised mice; conditions: D 21, MTD 0.25-0.3 mg/kg once daily oral, median tumor volume (n = 5)
Description: as §1

[9] = system: NCI-H1048 SCLC cell line; assay: Cell line cytotoxicity assay (CellTiter Glo), NCI-H1048; type: cell-based; conditions: Homo sapiens, SLFN11 RMA 7.583, read-out: BMN 673 Sensitivity In vitro GI50
Description: (§3) After 24 h, talazoparib at 2000, 400, 80, 16, 3.2, or 0.64 nM in 0.2% DMSO, or cisplatin at 100,000, 2000, 400, 80, 16, or 3.2 nM were added in duplicate, and incubated for an additional 5 or 7 days. Cell survival was determined by CellTiter Glo assay (Promega). Cell growth inhibition was calculated by two methods: (a) the treated cell counts relative to untreated control to obtain IC50 (convention survival fraction method), or (b) doublings from baseline under treatment relative to doublings from baseline without treatment to obtain GI50 (generational method), using GraphPad Prism5. Maximum inhibition levels for each method were also obtained.

[10] = system: NCI-H1048 SCLC xenograft; assay: Cell line-derived xenograft model NCI-H1048; type: in vivo, BALB/c nude mice; conditions: 0.33 mg/kg, Q1D×28 p.o.
Description: as §2

[11] = system: LXFS 615 SCLC PDX tumor; assay: Human SCLC PDX model LXFS 615; type: in vivo, immunocompromised mice; conditions: D 21, MTD 0.25-0.3 mg/kg once daily oral, median tumor volume (n = 5)
Description: as §1

[12] = system: NCI-H209 SCLC cell line; assay: Cell line cytotoxicity assay (CellTiter Glo), NCI-H209; type: cell-based; conditions: Homo sapiens, SLFN11 RMA 8.794, read-out: BMN 673 Sensitivity In vitro GI50
Description: as §3

[13] = system: LXFS 573 SCLC PDX tumor; assay: Human SCLC PDX model LXFS 573; type: in vivo, immunocompromised mice; conditions: D 21, MTD 0.25-0.3 mg/kg once daily oral, median tumor volume (n = 5)
Description: as §1

[14] = system: LXFS 650 SCLC PDX tumor; assay: Human SCLC PDX model LXFS 650; type: in vivo, immunocompromised mice; conditions: D 21, MTD 0.25-0.3 mg/kg once daily oral, median tumor volume (n = 5)
Description: as §1

[15] = system: Twelve human SCLC PDX models; assay: Twelve human SCLC PDX models, response classification; type: in vivo, immunocompromised mice; conditions: 12 SCLC PDX models; talazoparib at maximum tolerated dose
Description: as §1
Twelve human SCLC PDX models were further tested with talazoparib at maximum tolerated doses compared to a vehicle control.

[16] = system: NCI-H69 SCLC cell line; assay: Cell line cytotoxicity assay (CellTiter Glo), NCI-H69; type: cell-based; conditions: Homo sapiens, SLFN11 RMA 3.981, read-out: BMN 673 Sensitivity In vitro GI50
Description: as §3

[17] = system: 38 SCLC cell lines; assay: Cell line cytotoxicity assay (CellTiter Glo), panel of 38 SCLC cell lines; type: cell-based; conditions: Homo sapiens, 38 SCLC lines, 5 or 7 days incubation, generational method
Description: as §3, with “Various SCLC cell lines (38) were obtained from ATCC (American Type Culture Collection), ECACC (European Collection of Cell Cultures), JCRB (Japanese Collection of Research Bioresources), and CLS Cell Lines Service as shown in Table 1. […] After” for “After”

[18] = system: LU67 SCLC PDX tumor; assay: Human SCLC PDX model LU67; type: in vivo, immunocompromised mice; conditions: D 25, MTD 0.25-0.3 mg/kg once daily oral, median tumor volume (n = 5)
Description: as §1

[19] = system: LXFS 2156 SCLC PDX tumor; assay: Human SCLC PDX model LXFS 2156; type: in vivo, immunocompromised mice; conditions: D 21, MTD 0.25-0.3 mg/kg once daily oral, median tumor volume (n = 5)
Description: as §1

[20] = system: LU-01-0547 SCLC PDX tumor; assay: Human SCLC PDX model LU-01-0547; type: in vivo, immunocompromised mice; conditions: D 83, MTD 0.25-0.3 mg/kg once daily oral, median tumor volume (n = 5)
Description: as §1

**Q.** For `Cn1ncnc1[C@H]1c2n[nH]c(=O)c3cc(F)cc(c23)N[C@@H]1c1ccc(F)cc1` [talazoparib], which “Best response: Change from base line (%)” value [1] is on record?
**A.** −55%

**Q.** And the “Best response: Change from base line (%)” value [2]?
**A.** −30%

**Q.** And the “BMN 673 Sensitivity In vivo Tumor growth” value [3]?
**A.** No delay

**Q.** What about the “Best response: Change from base line (%)” value [4] of the same molecule?
**A.** 17%

**Q.** And the “Best response: Change from base line (%)” value [5]?
**A.** 260%

**Q.** What about the “BMN 673 Sensitivity In vivo Tumor growth” value [6] of the same molecule?
**A.** much more sensitive to talazoparib than the H69 model

**Q.** What about the “BMN 673 Sensitivity In vivo Tumor growth” value ([6]; listed as BMN 673, 0.33 mg/kg) of the same molecule?
**A.** Delay

**Q.** What about the “Best response: Change from base line (%)” value [7] of the same molecule?
**A.** 318%

**Q.** What about the “Best response: Change from base line (%)” value [8] of the same molecule?
**A.** 262%

**Q.** And the GI50 [9]?
**A.** 0.0144 µM

**Q.** What about the “BMN 673 Sensitivity In vivo Tumor growth” value [10] of the same molecule?
**A.** much more sensitive to talazoparib than the H69 model

**Q.** What about the “BMN 673 Sensitivity In vivo Tumor growth” value ([10]; listed as BMN 673, 0.33 mg/kg) of the same molecule?
**A.** Delay

**Q.** What about the “Best response: Change from base line (%)” value [11] of the same molecule?
**A.** 83%

**Q.** And the GI50 [12]?
**A.** 0.00203 µM

**Q.** And the “Best response: Change from base line (%)” value [13]?
**A.** 351%

**Q.** And the “Best response: Change from base line (%)” value [14]?
**A.** 314%

**Q.** And the “PDX models designated as progressive disease (PD)” value [15]?
**A.** remaining PDX models were resistant

**Q.** And the “PDX models with 30% or more tumor regression compared to baseline (partial responders, PR)” value [15]?
**A.** Three of the 12

**Q.** And the “PDX tumors with stable disease (SD)-like responses, tumor growth less than 100% on Day 21 or beyond” value [15]?
**A.** three of the 12

**Q.** And the GI50 [16]?
**A.** 0.19 µM

**Q.** What about the GI50 ([17]; read-out: GI50 range across the 38 SCLC lines) of the same molecule?
**A.** ≥ 0.002 µM

**Q.** What about the GI50 ([17]; read-out: median GI50 across the 38 SCLC lines) of the same molecule?
**A.** 0.056 µM

**Q.** And the “Best response: Change from base line (%)” value [18]?
**A.** −29%

**Q.** What about the “Best response: Change from base line (%)” value [19] of the same molecule?
**A.** 615%

**Q.** What about the “Best response: Change from base line (%)” value [20] of the same molecule?
**A.** −95%
